Reference: US20100015058A1, “RADIOLABELED BBN-RGD HETERODIMERS FOR CANCER TARGETING” (STANFORD UNIVERSITY, priority 2008, published 2010)

Assays:
[1] = MicroPET of T47D tumor-bearing mice; assay type: in vivo; settings: female, nude, mouse, T47D tumor, iv, total radioactivity, orthotopic model
From the text: The MDA-MB-231, MDA-MB468, BT474, BT-20, T47D, MCF-7 and MDA-MB435 human breast cancer cell lines were all obtained from the American Type Culture Collection (ATCC) and maintained under standard conditions according to ATCC. The MDA-MB435 tumor model was established by orthotopic injections of 5×10^6 cells into the right mammary fat pad of female athymic nude mice. For T47D tumor model establishment, the female nude mice were first subcutaneously implanted with 60-day release 17β-estradiol pellets (Innovative Research of America, Sarasota, Fla.) in the left neck. One day after the estradiol implantation, 1×10^7 T47D cells were orthotopically injected into the right mammary fat pad of the nude mice. The mice were subjected to microPET studies when the tumor volume reached 100-300 mm^3 (2-3 weeks for MDA-MB-435, and 4-5 wk for T47D).
Quantification of tumor and major organ activity accumulation in the microPET scans was realized by measuring the regions of interest (ROIs) that encompassing the entire organ on the coronal images.

[2] = Small-animal PET of PC-3 tumor-bearing mice; settings: mouse, in vivo, iv, total radioactivity; for tissue to tissue ratio at 2 h: T/NT ratio
Experimental: (a) PET scans and image analysis were performed using a micro-PET R4 rodent model scanner (Siemens Medical Solutions) as reported by Li et al., J. Nucl. Med. (2007) 48: 1162-1171 and Wu et al., J Nucl. Med. (2005) 46: 1707-1718, both of which are incorporated herein by reference in their entireties). […] Five-minute static PET images were then acquired at 0.5, 1, and 2 h after injection. The images were reconstructed by a 2-dimensional ordered-subsets expectation maximum (OSEM) algorithm. No attenuation or scatter correction was applied. […] The 5-min static PET scans were then acquired at 1 hr after injection. For each small-animal PET scan, regions of interest (ROIs) were drawn over the tumor, normal tissue, and major organs by using vendor software (ASI Pro 5.2.4.0) on decay-corrected whole-body coronal images. The average radioactivity concentration (accumulation) within a tumor or an organ was obtained from mean pixel values within the multiple ROI volume, which were converted to counts/mL/min using a conversion factor. Assuming a tissue density of 1 g/mL, the ROIs were converted to counts/g/min, and then divided by the administered activity to obtain an imaging ROI-derived percentage injected dose per gram of tissue (% ID/g).
For dynamic PET, 30-min scans (1×30 s, 4×1 min, 1×1.5 min, 4×2 min, 5×3 min; total 15 frames) were started 1 min after injection, and two 5-min static PET images were also acquired at 1 h and 2 h after injection. […] For each small-animal PET scan, regions of interest (ROIs) were drawn over the tumor, normal tissue, and major organs using vendor software ASI Pro 5.2.4.0 on decay-corrected whole-body coronal images. The maximum radioactivity concentrations (accumulation) within a tumor or an organ were obtained from mean pixel values within the multiple ROI volume, and were converted to megabecquerels per milliliter per minute using a conversion factor. These values were then divided by the administered activity to obtain (assuming a tissue density of 1 g/ml) an image ROI-derived percent injected dose per gram (% ID/g).
The images were reconstructed using a 2-dimensional ordered-subsets expectation maximum algorithm without attenuation or scatter correction.
For each small-animal PET scan, regions of interest were drawn over each tumor, over normal tissue, and over major organs using vendor software (ASI Pro, version 5.2.4.0) on decay-corrected whole-body coronal images. The maximum radioactivity concentration (accumulation) within a tumor or an organ was obtained from the mean pixel values within the multiple-region-of-interest volume, which were converted to MBq/mL/min using a conversion factor. Assuming a tissue density of 1 g/mL, the regions of interest were converted to MBq/g/min and then divided by the administered activity to obtain an imaging region-of-interest-derived percentage injected dose (% ID)/g.

[3] = MicroPET blood and normal organ uptake in T47D and MDA-MB-435 tumor-bearing nude mice; settings: for tissue uptake at 2 h / tissue uptake at 0.5 h / tissue uptake at 1 h: nude, mouse, iv, total radioactivity
From the text: The T47D or MDA-MB435 tumor uptake is expressed as the average of each tracer in four mice, while the normal organ uptake is expressed as the average of each tracer in eight mice (four T47D tumor-bearing mice and four MDA-MB-435 tumor-bearing mice per tracer).

PC-3 tumor cells = test: Cell uptake assay on PC-3 tumor cells; assay type: cell-based, human; settings: PC-3 cells; for cell uptake: 37° C.
Experimental: In the cell uptake experiment, PC-3 cells were seeded into 12-well plates at a density of 5×10^5 cells per well for overnight incubation. Cells were rinsed 3 times with phosphate-buffered saline (PBS), followed by the addition of ^18F-FB-RGD, ^18F-FB-BBN, or ^18F-BBN-RGD to the cultured wells in triplicate (about 2 μCi/well). […] The cell lysate was collected in measurement tubes for counting. The cell uptake was normalized in terms of added radioactivity.
The cell uptake studies were performed as we have previously described with some modifications (Chen et al., Mol Imaging Biol. (2004) […]; Cai et al., (2006) J. Nuc. Med. 47: 1172-1180, incorporated herein by reference in their entireties). Briefly, PC-3 cells were seeded into 12-well plates at a density of 5×10^5 cells per well and incubated (about 18 kBq/well) with ^68Ga-labeled tracers at 37° C. for 15, 30, 60, and 120 min. Tumor cells were then washed three times with chilled PBS and harvested by trypsinization with 0.25% trypsin/0.02% EDTA (Invitrogen). The cell suspensions were collected and measured in a y counter (Packard, Meriden, Conn.). The cell uptake was expressed as the percent added dose (% AD) after decay correction. Experiments were performed twice with triplicate wells. For efflux studies, ^68Ga-labeled tracers (about 18 kBq/well) were first incubated with PC-3 cells in 12-well plates for 1 h at 37° C. to allow internalization. Then cells were washed twice with PBS, and incubated with cell culture medium for 15, 30, and 60 min. After washing three times with PBS, cells were harvested by trypsinization with 0.25% trypsin/0.02% EDTA. The cell suspensions were collected and measured in a γ counter. Experiments were performed twice with triplicate wells. Data are expressed as percent added dose after decay correction.

T47D tumor cells = test: Cell uptake assay on T47D tumor cells; assay type: cell-based, human; settings: 120 min, 37° C., n=3
Experimental: The cells suspensions were collected and measured in a y counter (Packard, Meriden, Conn.). The cell uptake was expressed as the percent added dose (% AD) after decay correction. Experiments were performed twice with triplicate wells.

[4] = male, athymic nude, 3.7 MBq, PC-3 tumor uptake
[5] = male, athymic nude, 3.7 MBq, PC-3 tumor uptake, dynamic scan
[6] = male, athymic nude, 3.7 MBq, PC-3 tumor uptake, static scan after dynamic scan

CSCC[C@H](NC(=O)[C@H](CC(C)C)NC(=O)[C@H](Cc1c[nH]cn1)NC(=O)CNC(=O)[C@@H](NC(=O)[C@H](C)NC(=O)[C@H](Cc1c[nH]c2ccccc12)NC(=O)[C@H](CCC(N)=O)NC(=O)CCCCCNC(=O)CC[C@H](NC(=O)COCCOCCOCCNC(=O)c1ccc([18F])cc1)C(=O)NCCCC[C@@H]1NC(=O)[C@@H](Cc2ccc(O)cc2)NC(=O)[C@H](CC(=O)O)NC(=O)CNC(=O)[C@H](CCCNC(=N)N)NC1=O)C(C)C)C(N)=O [^18F-FB-PEG3-RGD-BBN]
tissue uptake at 0.5 h ([1]; 0.5 h): 2.96 ± 0.53 %ID/g
tissue uptake at 1 h ([1]; 1 h): 1.81 ± 0.34 %ID/g
tissue uptake at 2 h ([1]; 2 h): 0.91 ± 0.12 %ID/g
tissue uptake at 1 h ([2]; male, athymic nude, 10 mg/kg, PC-3 tumor uptake with RGD blocking, 1 h, 3.7 MBq, co-injected c(RGDyK) 10 mg/kg): 2.19 ± 0.97 %ID/g
tissue uptake at 0.5 h [2, 4]: 6.35 ± 2.52 %ID/g
tissue uptake at 1 h [2, 4]: 4.41 ± 0.71 %ID/g
tissue uptake at 2 h [2, 4]: 2.47 ± 0.81 %ID/g
tissue uptake at 5 min [2, 5]: 3.54 %ID/g
tissue uptake at 0.25 h [2, 5]: 4.86 %ID/g
tissue uptake at 0.5 h [2, 5]: 5.64 %ID/g
tissue uptake at 1 h [2, 6]: 4.08 %ID/g
tissue uptake at 2 h [2, 6]: 2.88 %ID/g
tissue uptake at 0.5 h ([2]; male, athymic nude, 3.7 MBq, liver uptake (highest)): < 2 %ID/g
tissue uptake at 1 h ([2]; male, athymic nude, PC-3 tumor uptake with BBN blocking, 1 h, 3.7 MBq, co-injected Aca-BBN(7-14) 15 mg/kg): 1.58 ± 0.52 %ID/g
tissue uptake at 1 h ([2]; male, athymic nude, PC-3 tumor uptake with RGD+BBN blocking, 1 h, 3.7 MBq, co-injected RGD 10 mg/kg and BBN 15 mg/kg): 0.43 ± 0.08 %ID/g
tissue to tissue ratio at 2 h ([2]; tumor/blood): 8.1 ± 1.14
tissue to tissue ratio at 2 h ([2]; tumor/kidneys): 1.44 ± 0.05
tissue to tissue ratio at 2 h ([2]; tumor/liver): 6.43 ± 0.81
tissue to tissue ratio at 2 h ([2]; tumor/muscle): 10.5 ± 0.75
Liver uptake ([3]; average of eight mice, 0.5 h): 1.13±0.43 % ID/g
Kidney uptake ([3]; average of eight mice, 2 h): 0.74±0.19 % ID/g
tissue uptake at 2 h ([3]; female, kidney): 0.74 ± 0.19 %ID/g
tissue uptake at 0.5 h ([3]; female, liver): 1.13 ± 0.43 %ID/g
tissue uptake at 0.5 h ([3]; blood): 0.78 ± 0.37 %ID/g
tissue uptake at 1 h ([3]; blood): 0.41 ± 0.11 %ID/g
tissue uptake at 2 h ([3]; blood): 0.18 ± 0.02 %ID/g
tissue uptake at 0.5 h ([3]; kidney): 2.77 ± 0.78 %ID/g
tissue uptake at 1 h ([3]; kidney): 1.56 ± 0.32 %ID/g
tissue uptake at 1 h ([3]; liver): 0.56 ± 0.21 %ID/g
tissue uptake at 2 h ([3]; liver): 0.23 ± 0.07 %ID/g
tissue uptake at 0.5 h ([3]; muscle): 0.81 ± 0.23 %ID/g
tissue uptake at 1 h ([3]; muscle): 0.33 ± 0.17 %ID/g
tissue uptake at 2 h ([3]; muscle): 0.15 ± 0.05 %ID/g
inhibition of cell uptake by BBN (PC-3 tumor cells; 4° C., 60 min, blocking with Aca-BBN(7-14)): 83.67±2.09%
inhibition of cell uptake by RGD+BBN (PC-3 tumor cells; 4° C., 60 min, blocking with both peptides): 91.97±0.14%
inhibition of cell uptake by RGD (PC-3 tumor cells; 4° C., 60 min, blocking with c(RGDyK)): 17.55±8.89%
cell uptake (PC-3 tumor cells; 15 min): 4.72±0.37%
cell uptake (PC-3 tumor cells; 30 min): 5.51±0.11%
cell uptake (PC-3 tumor cells; 60 min): 5.87±0.15%
cell uptake (PC-3 tumor cells; 120 min): 6.65±0.34%
internalization (uptake at 37° C. minus uptake at 4° C.) (PC-3 tumor cells; within 30 min of incubation, plateaus afterwards): about 3.5%
T47D cell uptake value (T47D tumor cells): 4.25±0.13 % AD
